How the values were obtained:
[1] = system: KRAS RNA G4-c (KRAS RG4) (RNA, G4) AAGGUGGCGGCGGCUCG; assay: EMSA; conditions: 15% native PAGE, Tris-borate-EDTA; 10 μM RNA, 0-50 μM compound
[2] = system: KRAS RNA G4-b (RNA, G4) GGCGGCGGCAGUGGCGGCGG; assay: CD melting; conditions: 1 mM K+; 10 mM Tris-HCl pH 7.4; 2 μM RNA, 10 μM compound; Tm alone 59.5 °C
[3] = system: 5'-Cy5-labeled KRAS RG4 (G4-c) (RNA, G4) AAGGUGGCGGCGGCUCG; assay: fluorescence quenching titration of Cy5; conditions: 100 mM K+; 10 mM Tris-HCl pH 7.4; 1 μM RNA
[4] = system: KRAS RNA G4-c (KRAS RG4) (RNA, G4) AAGGUGGCGGCGGCUCG; assay: thiazole orange displacement, fluorescence; conditions: 100 mM K+; 10 mM Tris-HCl pH 7.4; 0.25 μM RNA; tracer 0.5 μM thiazole orange displaced
[5] = system: KRAS RNA G4-c (KRAS RG4) (RNA, G4) AAGGUGGCGGCGGCUCG; assay: CD melting; conditions: 1 mM K+, 10 mM Tris-HCl pH 7.4, 2 μM RNA
[6] = system: KRAS RNA G4-a (RNA, G4) GCGGCGGCGGAGGCAGCA; assay: CD melting; conditions: 1 mM K+; 10 mM Tris-HCl pH 7.4; 2 μM RNA, 10 μM compound; Tm alone 66.0 °C
[7] = system: KRAS RNA G4-c (KRAS RG4) (RNA, G4) AAGGUGGCGGCGGCUCG; assay: 1H NMR, imino protons; conditions: K+ (potassium phosphate, concentration not stated), 10% D2O, 25 °C, 200 μM RNA, 1 to 5 equivalents
[8] = system: RNA hairpin (RNA, hairpin) GGCCGCCGCAGUGGCGGCGG; assay: competition: fluorescence recovery of MBD-quenched Cy5-labeled KRAS RG4; conditions: 100 mM K+; 10 mM Tris-HCl pH 7.4; RNA hairpin added as competitor to 1 μM Cy5-G4-c with MBD
[9] = system: 3'-Cy5-labeled KRAS RG4 (G4-c) (RNA, G4) AAGGUGGCGGCGGCUCG; assay: fluorescence quenching titration of Cy5; conditions: 100 mM K+; 10 mM Tris-HCl pH 7.4; 1 μM RNA
[10] = system: DNA hairpin (DNA, hairpin) CGCGCGCGTTTTCGCGCGCG; assay: competition: fluorescence recovery of MBD-quenched Cy5-labeled KRAS RG4; conditions: 100 mM K+; 10 mM Tris-HCl pH 7.4; DNA hairpin added as competitor to 1 μM Cy5-G4-c with MBD

Row | EC50 [4] [nM] | binding [5] | SMILES | also measured
1 | 1500 | – | CC1CCN(c2ccc3c(c2)c2cc([N+]4(C)CCC(C)CC4)ccc2c2nc4cc5ccccc5cc4nc32)CC1 (stereo not shown) | binding [1]: yes; binding [2]: yes; binding [3]: yes; ΔTm ([5]; 10 μM compound, Tm alone 64.1 °C): 11.0 °C; binding [6]: yes; binding [7]: yes; binding [8]: no; binding [9]: yes; binding [10]: no
2 | 1400 | yes | COc1cc2nc3c4ccc(N5CCC(C)CC5)cc4c4cc([N+]5(C)CCC(C)CC5)ccc4c3nc2cc1OC (stereo not shown) | –
3 | 1500 | yes | Cc1cc2nc3c4ccc(N5CCC(C)CC5)cc4c4cc([N+]5(C)CCC(C)CC5)ccc4c3nc2cc1C (stereo not shown) | –
4 | 1800 | weak | CC1CCN(c2ccc3c(c2)c2cc([N+]4(C)CCC(C)CC4)ccc2c2nc4ccccc4nc32)CC1 (stereo not shown) | –
5 | 7000 | weak | CC1CCN(c2ccc3c(c2)c2cc([N+]4(C)CCC(C)CC4)ccc2c2nc4cc(Cl)c(Cl)cc4nc32)CC1 (stereo not shown) | –
6 | 3300 | weak | CC1CCN(c2ccc3c(c2)c2cc([N+]4(C)CCC(C)CC4)ccc2c2nc4cc(F)c(F)cc4nc32)CC1 (stereo not shown) | –
7 | 45000 | no | CC1CCN(c2ccc3c(c2)c2cc(N4CCC(C)CC4)ccc2c2nc4cc5ccccc5cc4nc32)CC1 | –
